The record followed here is ChEMBL document CHEMBL3044963, “Synthesis and in vitro anticancer activity of novel thiazacridine derivatives” (Med Chem Res, 2013).

≈ marks a conversion by molar mass, not a printed value. Bounds are passed on as bounds.

The test system of assay [1] is MDA-MB-435. Put plainly: Anticancer activity against Homo sapiens (human) MDA-MB-435 cells assessed as inhibition of cell survival after 72 hr by MTT assay. It is filed as functional, cell-based. As to conditions: MDA-MB-435, 72 h.
In assay [2] the test system is HCT-8. Nature of the assay: Anticancer activity against Homo sapiens (human) HCT8 cells assessed as inhibition of cell survival after 72 hr by MTT assay. It is filed as functional, cell-based. The settings on record: HCT-8, 72 h.
Assay [3] relates to SF-295. Nature of the assay: Anticancer activity against Homo sapiens (human) SF295 cells assessed as inhibition of cell survival after 72 hr by MTT assay. It is filed as functional, cell-based. As to conditions: SF-295, 72 h.
A further assay concerns HL-60. Nature of the assay: Anticancer activity against Homo sapiens (human) HL60 cells assessed as inhibition of cell survival after 72 hr by MTT assay. It is filed as functional, cell-based. The settings on record: HL-60, 72 h.
Assay [4] concerns MDA-MB-435. Put plainly: Anticancer activity against Homo sapiens (human) MDA-MB-435 cells assessed as growth inhibition at 25 ug/ml after 72 hr by MTT assay. It is filed as functional. The settings on record: MDA-MB-435, 72 h, read-out: GI.
Assay [5] relates to HCT-8. Nature of the assay: Anticancer activity against Homo sapiens (human) HCT8 cells assessed as growth inhibition at 25 ug/ml after 72 hr by MTT assay. As to conditions: HCT-8, 72 h, read-out: GI. It is filed as functional.
For assay [6], the system named is SF-295. Put plainly: Anticancer activity against Homo sapiens (human) SF295 cells assessed as growth inhibition at 25 ug/ml after 72 hr by MTT assay. It is filed as functional. The settings on record: SF-295, 72 h, read-out: GI.
The subject of assay [7] is MDA-MB-435. Put plainly: Anticancer activity against Homo sapiens (human) MDA-MB-435 cells assessed as growth inhibition at 0.3 ug/ml after 72 hr by MTT assay. It is filed as functional. As to conditions: MDA-MB-435, 72 h, read-out: GI.
The subject of assay [8] is HCT-8. Nature of the assay: Anticancer activity against Homo sapiens (human) HCT8 cells assessed as growth inhibition at 0.3 ug/ml after 72 hr by MTT assay. It is filed as functional. The settings on record: HCT-8, 72 h, read-out: GI.
Assay [9] relates to SF-295. Put plainly: Anticancer activity against Homo sapiens (human) SF295 cells assessed as growth inhibition at 0.3 ug/ml after 72 hr by MTT assay. It is filed as functional. The settings on record: SF-295, 72 h, read-out: GI.

For the molecule `O=C1CSC(=O)N1Cc1c2ccccc2nc2ccccc12`, the IC50 in the assay with MDA-MB-435 [1], in the assay on HCT-8 [2], in the assay on SF-295 [3] and in the assay on HL-60 was above 25 µg/mL throughout. For the same molecule, the inhibition of growth at 25 µg/mL came to 0% in the assay with MDA-MB-435 [4], 42% with HCT-8 [5] and 32.8% in the assay on SF-295 [6].
As to `O=C1S/C(=C\c2c3ccccc3nc3ccccc23)C(=O)N1Cc1c2ccccc2nc2ccccc12`, the IC50 was 7.01 µg/mL (≈ 14.1 µM) in the assay with MDA-MB-435 [1], 4.45 µg/mL (≈ 8.94 µM) in the assay on HCT-8 [2], 4.44 µg/mL (≈ 8.92 µM) in the assay with SF-295 [3] and above 25 µg/mL in the assay with HL-60. In addition, the results for the inhibition of growth at 25 µg/mL in the assay on MDA-MB-435 [4], in the assay with HCT-8 [5] and in the assay with SF-295 [6] were 95.9%, 92.4% and 76.7%, respectively.
For the molecule `COc1ccc(/C=C2\SC(=O)N(Cc3c4ccccc4nc4ccccc34)C2=O)cc1`, the half-inhibitory concentration (IC50) in the assay on MDA-MB-435 [1] is above 25 µg/mL; in the assay with HCT-8 [2], 19.3 µg/mL (≈ 45.2 µM); in the assay with SF-295 [3], above 25 µg/mL; in the assay with HL-60, above 25 µg/mL. The results for the inhibition of growth at 25 µg/mL in the assay on MDA-MB-435 [4], with HCT-8 [5] and in the assay on SF-295 [6] were 84.2%, 86.7% and 59.5%, respectively.
`Cc1ccc(/C=C2\SC(=O)N(Cc3c4ccccc4nc4ccccc34)C2=O)cc1`: the IC50 in the assay on MDA-MB-435 [1], with HCT-8 [2], with SF-295 [3] and in the assay on HL-60 was above 25 µg/mL throughout. Also, the inhibition of growth at 25 µg/mL stood at 31.2% with MDA-MB-435 [4], 51.3% with HCT-8 [5] and 29.9% with SF-295 [6].
Turning to `O=C1S/C(=C\c2ccc(Cl)cc2)C(=O)N1Cc1c2ccccc2nc2ccccc12`, the IC50 in the assay on MDA-MB-435 [1], in the assay on HCT-8 [2], with SF-295 [3] and with HL-60 was above 25 µg/mL in each case. The inhibition of growth at 25 µg/mL turned out to be 0% in the assay on MDA-MB-435 [4], 37.8% in the assay with HCT-8 [5] and 31.3% in the assay on SF-295 [6].
As for `O=C1S/C(=C\c2ccc(Br)cc2)C(=O)N1Cc1c2ccccc2nc2ccccc12`, the IC50 in the assay with MDA-MB-435 [1] was above 25 µg/mL; in the assay on HCT-8 [2], 20.6 µg/mL (≈ 43.4 µM); in the assay on SF-295 [3], above 25 µg/mL; in the assay with HL-60 it was 19.5 µg/mL (≈ 41 µM). Also, the inhibition of growth at 25 µg/mL in the assay on MDA-MB-435 [4] worked out at 85.3%; in the assay with HCT-8 [5], 96.6%; in the assay with SF-295 [6] it was 62.2%.
Regarding `CS(=O)(=O)c1ccc(/C=C2\SC(=O)N(Cc3c4ccccc4nc4ccccc34)C2=O)cc1`, the half-maximal inhibitory concentration (IC50) with MDA-MB-435 [1], in the assay on HCT-8 [2], with SF-295 [3] and in the assay with HL-60 was above 25 µg/mL throughout. In addition, the inhibition of growth at 25 µg/mL with MDA-MB-435 [4] was 12.9%; in the assay on HCT-8 [5], 64.3%; with SF-295 [6], 44.3%.
Consider `COc1ccc(/C=C2\SC(=O)N(Cc3c4ccccc4nc4ccccc34)C2=O)cc1Br`, for which the IC50 in the assay with MDA-MB-435 [1], with HCT-8 [2], with SF-295 [3] and in the assay with HL-60 was above 25 µg/mL throughout. The inhibition of growth at 25 µg/mL with MDA-MB-435 [4] was 53%; in the assay on HCT-8 [5], 72.5%; in the assay with SF-295 [6], 48%.
As for `COc1cccc2c1C(=O)c1c(O)c3c(c(O)c1C2=O)C[C@@](O)(C(=O)CO)C[C@@H]3O[C@H]1C[C@H](N)[C@H](O)[C@H](C)O1` [DOXORUBICIN], the IC50 with MDA-MB-435 [1] is 0.24 µg/mL (≈ 0.442 µM); in the assay with SF-295 [3], 0.48 µg/mL (≈ 0.883 µM). Moreover, the inhibition of growth at 0.3 µg/mL stood at 93.6% in the assay on MDA-MB-435 [7], 95.2% in the assay with HCT-8 [8] and 91.1% in the assay on SF-295 [9].
